The structures appear in SMILES notation. Counter-ions that a name gives are not always drawn.

The source of these data is patent US20090088482A1, “Compositions and Methods For Treating Heart Failure” (The Trustees Of Columbia University In The City New York, priority 2003, published 2009).

The nature of data set [1]: Cardiopulmonary exercise testing in a patient with NYHA Class III CHF treated with clenbuterol. It counts as in vivo, human. The note with it: 40 mcg b.i.d., six weeks. On the procedure: A patient with New York Heart Association Class III CHF with an ICD, currently taking a heart failure medical regimen, including carvedilol (a non-selective beta-blocking agent), lisinopril (an ACE inhibitor), digoxin and spiranolactone, has shortness of breath on moderate exertion and a peak oxygen consumption of 14 ml/kg/min during cardiopulmonary exercising testing.

The conditions of data set [2]: CHF patients, 8 mg b.i.d., three weeks; cited from earlier work.

As to `CC(C)(C)NCC(O)c1cc(Cl)c(N)c(Cl)c1` (centres unmarked) [clenbuterol hydrochloride, Clenbuterol hydrochloride], in data set [1], the tolerability of dose result is “well-tolerated”. Turning to `CC(C)(C)NCC(O)c1ccc(O)c(CO)c1` (centres unmarked) [salbutamol], the “quadriceps bulk, muscle strength or fatigue, exercise capacity, symptom assessment scores” value in data set [2] is “no change”.
